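Results reflect a 48-hour exposure of cells in 96-well plates to compound at five concentrations. At the GI50, growth is halved. TGI: total growth inhibition.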
Key:
Assay in all cases: inhibition of tumour cell growth, NCI panel, 48 h
[1] = test system: M14 melanoma
[2] = test system: UO-31 renal
[3] = test system: SK-OV-3 ovarian
[4] = test system: OVCAR-8 ovarian
[5] = test system: U251 CNS
[6] = test system: HT29 colon
[7] = test system: MOLT-4 leukemia
[8] = test system: SF-295 CNS
[9] = test system: SK-MEL-5 melanoma
[10] = test system: HOP-92 NSCLC

`Cc1cn2c(/C=C3\C(=O)Nc4ccc(O)cc43)c(-c3ccc(Cl)cc3)nc2s1` was tested, and the GI50 [1] was 17 µM, the TGI [1] was > 100 µM and the GI50 [2] was 5.37 µM. It also gave a TGI [2] of 59.9 µM, a GI50 [3] of 25.9 µM and a TGI [3] of 62.7 µM. For the same compound, the GI50 [4] was 18.4 µM, the TGI [4] was > 100 µM and the GI50 [5] was 14.3 µM. For the same compound, the TGI [5] was 28.9 µM, the GI50 [6] was 18.1 µM and the TGI [6] was 56.2 µM. It also gave a GI50 [7] of 9.97 µM, a TGI [7] of 27.1 µM and a GI50 [8] of 15.2 µM. It also gave a TGI [8] of 41.4 µM, a GI50 [9] of 10.1 µM and a TGI [9] of 25.2 µM.

In the case of `O=C1c2ccccc2C2(O)c3cc4ccccc4cc3OC12O` (centres undefined), the TGI [1] is reported as > 100 µM, the TGI [10] is reported as 80.4 µM and the TGI [3] is reported as > 100 µM. The TGI [4] was > 100 µM, the TGI [5] was > 100 µM and the TGI [6] was > 100 µM. For the same compound, the TGI [7] was > 100 µM, the TGI [8] was > 100 µM and the TGI [9] was 86.9 µM.

In the case of `Cc1ccc(S(=O)(=O)N/N=C/c2oc(-c3ccncc3)c(-c3ccncc3)c2[N+](=O)[O-])cc1`, the TGI [1] is reported as > 100 µM, the TGI [2] is reported as > 100 µM and the TGI [3] is reported as > 100 µM. The TGI [4] was > 100 µM, the TGI [5] was > 100 µM and the TGI [6] was > 100 µM. For the same compound, the TGI [7] was > 100 µM, the TGI [8] was > 100 µM and the TGI [9] was > 100 µM.

`O=C1CC(C[C@H](O)C2CCCCC2O)CC(=O)N1Cc1ccccc1` (some centres undefined) was tested, and the TGI [1] was > 100 µM, the TGI [2] was > 100 µM and the TGI [3] was > 100 µM. For the same compound, the TGI [4] was > 100 µM, the TGI [5] was > 100 µM and the TGI [6] was > 100 µM. For the same compound, the TGI [7] was > 100 µM, the TGI [8] was > 100 µM and the TGI [9] was > 100 µM.

`COc1ccc(-c2cc(-c3ccccc3)c(C#N)c(=O)n2C2OC(CO)C(O)C(O)C2O)cc1` (centres undefined) was tested, and the TGI [1] was > 100 µM, the TGI [2] was > 100 µM and the TGI [3] was > 100 µM. For the same compound, the TGI [4] was > 100 µM, the TGI [5] was > 100 µM and the TGI [6] was > 100 µM. For the same compound, the TGI [7] was > 100 µM, the TGI [8] was > 100 µM and the TGI [9] was > 100 µM.

With `O=C(Nc1cc(Cl)ccc1Cl)c1cc2cccc(Cl)c2oc1=O` the TGI [1] was > 100 µM, the TGI [3] was > 100 µM and the TGI [4] was > 100 µM. For the same compound, the TGI [5] was > 100 µM, the TGI [6] was > 100 µM and the TGI [7] was > 100 µM. For the same compound, the TGI [8] was > 100 µM and the TGI [9] was > 100 µM.

For `COc1ccc(/C(=N\NC(=O)C(N)=O)C(c2ccc(OC)cc2)C2(O)C(=O)Nc3c(Cl)cccc32)cc1` (centres undefined), the TGI [1] was > 100 µM, the TGI [2] was > 100 µM and the TGI [10] was > 100 µM. For the same compound, the TGI [4] was > 100 µM, the TGI [5] was > 100 µM and the TGI [6] was > 100 µM. For the same compound, the TGI [7] was > 100 µM, the TGI [8] was > 100 µM and the TGI [9] was > 100 µM.

For `CC(=O)n1c2c(c(=O)n1-c1ccccc1)S(=O)CCC2` (centres undefined), the TGI [1] was > 100 µM, the TGI [2] was > 100 µM and the TGI [3] was > 100 µM. The TGI [4] was > 100 µM, the TGI [5] was > 100 µM and the TGI [6] was > 100 µM. For the same compound, the TGI [7] was 6.9 µM, the TGI [8] was > 100 µM and the TGI [9] was > 100 µM.

With `CCOC(=O)NC(=O)c1cn(CCOC(=O)NCCCCCCNC(=O)OCCn2cc(C(=O)NC(=O)OCC)c(=O)[nH]c2=O)c(=O)[nH]c1=O` the TGI [1] was > 100 µM, the TGI [2] was > 100 µM and the TGI [3] was > 100 µM. For the same compound, the TGI [4] was > 100 µM, the TGI [5] was > 100 µM and the TGI [6] was > 100 µM. The TGI [7] was > 100 µM, the TGI [8] was > 100 µM and the TGI [9] was > 100 µM.

For `CCOC(=O)C(C)(C)Oc1ccc2c(C)c(-c3ccc(Cl)cc3)c(=O)oc2c1`, the TGI [1] was > 100 µM, the TGI [2] was > 100 µM and the TGI [4] was > 100 µM. The TGI [5] was > 100 µM, the TGI [6] was 62.7 µM and the TGI [7] was > 100 µM. For the same compound, the TGI [8] was > 100 µM and the TGI [9] was 35 µM.

`COC1[C@@H](OC(C)=O)[C@@H](NC(=O)C(Cl)(Cl)Cl)C(I)[C@@H](N2C(=O)c3ccccc3C2=O)[C@H]1OC` (some centres undefined) was tested, and the TGI [1] was > 100 µM, the TGI [10] was > 100 µM and the TGI [4] was > 100 µM. The TGI [5] was > 100 µM, the TGI [6] was > 100 µM and the TGI [7] was > 100 µM. For the same compound, the TGI [8] was > 100 µM and the TGI [9] was > 100 µM.

In the case of `Nc1nc(N)c(N=Nc2ccc([As](=O)(O)O)cc2)c(=O)[nH]1`, the TGI [1] is reported as > 100 µM, the TGI [2] is reported as > 100 µM and the TGI [3] is reported as > 100 µM. For the same compound, the TGI [4] was > 100 µM, the TGI [5] was > 100 µM and the TGI [6] was > 100 µM. The TGI [7] was > 100 µM, the TGI [8] was > 100 µM and the TGI [9] was > 100 µM.

Work on `CCCCCCNC(=O)c1nc(-c2ccccc2)oc1Cc1ccc(OP(=O)(O)O)cc1` yielded a GI50 [1] of 18 µM, a TGI [1] of 35.5 µM and a GI50 [2] of 12.6 µM. The TGI [2] was 26.8 µM, the GI50 [10] was 14.2 µM and the TGI [10] was 27.9 µM. The GI50 [3] was 20 µM, the TGI [3] was 47.6 µM and the GI50 [4] was 20.2 µM. It also gave a TGI [4] of 45.6 µM, a GI50 [5] of 15.7 µM and a TGI [5] of 29.9 µM. The GI50 [6] was 19.5 µM, the TGI [6] was 37.8 µM and the GI50 [7] was 20.9 µM. The TGI [7] was 54.8 µM, the GI50 [9] was 16.8 µM and the TGI [9] was 30.7 µM.

With `Cc1ccc(/C=C/c2c(C(=O)/C=C/c3ccc(C(F)(F)F)cc3)c(C)nc3ccccc23)cc1` the GI50 [2] was 1.01 µM, the TGI [2] was 2.17 µM and the GI50 [10] was 1.43 µM. For the same compound, the TGI [10] was 2.98 µM, the GI50 [3] was 1.8 µM and the TGI [3] was 3.6 µM. For the same compound, the GI50 [4] was 1.88 µM, the TGI [4] was 6.43 µM and the GI50 [5] was 1.47 µM. The TGI [5] was 3.13 µM, the GI50 [6] was 0.674 µM and the TGI [6] was 4.57 µM. The GI50 [7] was 0.625 µM, the TGI [7] was > 100 µM and the GI50 [8] was 1.74 µM. The TGI [8] was 3.14 µM, the GI50 [9] was 1.54 µM and the TGI [9] was 2.87 µM.

`NS(=O)(=O)c1ccc(N(/C=C/C(=O)C(F)(F)F)CC(=O)c2ccc(Cl)cc2)cc1` was tested, and the GI50 [2] was 45.3 µM, the TGI [2] was > 100 µM and the GI50 [10] was 22.3 µM. The TGI [10] was 86.7 µM, the GI50 [3] was 69 µM and the TGI [3] was > 100 µM. For the same compound, the GI50 [4] was 43.4 µM, the TGI [4] was > 100 µM and the GI50 [5] was 33 µM. For the same compound, the TGI [5] was > 100 µM, the GI50 [6] was 35.6 µM and the TGI [6] was > 100 µM. It also gave a GI50 [7] of 32.9 µM, a TGI [7] of 89.9 µM and a GI50 [8] of 26.2 µM. The TGI [8] was 74.4 µM, the GI50 [9] was 38.9 µM and the TGI [9] was > 100 µM.

For `c1ccc(SC2CCSc3ccccc3C2Sc2ccccc2)cc1` (centres undefined), the TGI [1] was > 100 µM, the TGI [2] was > 100 µM and the TGI [10] was > 100 µM. For the same compound, the TGI [4] was > 100 µM, the TGI [5] was > 100 µM and the TGI [6] was > 100 µM. For the same compound, the TGI [7] was > 100 µM, the TGI [8] was > 100 µM and the TGI [9] was > 100 µM.

`COc1ccccc1N1CCN(CCCn2c(=O)c3c(OC)nc(C)cc3c(=O)n2-c2ccccc2)CC1` was tested, and the GI50 [1] was > 100 µM, the TGI [1] was > 100 µM and the GI50 [2] was > 100 µM. The TGI [2] was > 100 µM, the GI50 [10] was > 100 µM and the TGI [10] was > 100 µM. For the same compound, the GI50 [3] was > 100 µM, the TGI [3] was > 100 µM and the GI50 [5] was > 100 µM. For the same compound, the TGI [5] was > 100 µM, the GI50 [6] was > 100 µM and the TGI [6] was > 100 µM. The GI50 [7] was > 100 µM, the TGI [7] was > 100 µM and the GI50 [8] was > 100 µM. The TGI [8] was > 100 µM, the GI50 [9] was > 100 µM and the TGI [9] was > 100 µM.

Work on `COc1cccc2c1C(=O)c1c(O)c3c(c(O)c1C2=O)CC(O)(/C(C)=N/NC(=O)CCC(=O)N/N=C(\C)C1(O)Cc2c(O)c4c(c(O)c2C(OC2CC(N)C(O)C(C)O2)C1)C(=O)c1c(OC)cccc1C4=O)CC3OC1CC(N)C(O)C(C)O1` (centres undefined) yielded a GI50 [1] of 0.292 µM, a TGI [1] of 2.12 µM and a GI50 [2] of 0.158 µM. For the same compound, the TGI [2] was 1.09 µM, the GI50 [10] was 0.438 µM and the GI50 [3] was 0.475 µM. The TGI [3] was 2.4 µM, the GI50 [4] was 0.306 µM and the TGI [4] was > 50 µM. The GI50 [6] was 0.333 µM, the TGI [6] was > 10.5 µM and the GI50 [7] was 0.142 µM. For the same compound, the GI50 [8] was 0.42 µM and the TGI [8] was 6.51 µM.
